In the supplement of paper PMC8967900:

Columns and labels:
Experiment in all cases: selective drug sensitivity score (sDSS, relative to normal bone marrow) (sDSS (score)); higher = more potent and effective on the cell line relative to normal bone marrow cells
Details in all cases: 72 h
SEM cells = test system: SEM cells
CCRF-CEM = test system: CCRF-CEM
ALL-SIL = test system: ALL-SIL
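Note: ALL cell lines in 384-well plates, five doses spanning 10,000-fold, each plate scaled between vehicle and 100 µmol/L benzalkonium chloride controls, sDSS an adapted area-under-curve metric.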

| SMILES | selective drug sensitivity score (SEM cells) | selective drug sensitivity score (CCRF-CEM) | selective drug sensitivity score (ALL-SIL) |
| --- | --- | --- | --- |
| CN(CC(=O)N(Cc1ccc(C2CCCCC2)cc1)c1ccc(C(=O)O)cc1)S(=O)(=O)c1c(F)c(F)c(F)c(F)c1F [SH-4-54] (top concentration 25000 nM) | -6.14 | -4.54 | -3.84 |
| Cc1cc2c(C(=O)NC[C@H](C)c3ccccc3)c(O)c(O)cc2c(O)c1-c1c(C)cc2c(C(=O)NC[C@H](C)c3ccccc3)c(O)c(O)cc2c1O [Sabutoclax] (top concentration 25000 nM) | 10.4 | 13.8 | 12.2 |
| CC1=C2C[C@H]3[C@@H](CC[C@@H]4C[C@H](NS(C)(=O)=O)CC[C@@]43C)[C@@H]2CC[C@@]2(C1)O[C@@H]1C[C@H](C)CN[C@H]1[C@H]2C [Saridegib] (top concentration 10000 nM) | -1.16 | -0.46 | -1.16 |
| Cc1cc(F)c(C(=O)Nc2cccc(-c3nncn3C(C)C)n2)cc1-n1cnc(C2CC2)c1 [Selonsertib] (top concentration 1000 nM) | 0 | 0 | 0 |
| Nc1nc2cc(-c3ccc4ncc(C(=O)N5CCOCC5)n4c3)ccc2o1 [Serabelisib] (top concentration 10000 nM) | 1.56 | 0.76 | 0.36 |
| CCC(C)(C)C(=O)O[C@H]1C[C@@H](C)C=C2C=C[C@H](C)[C@H](CC[C@@H]3C[C@@H](O)CC(=O)O3)[C@H]21 [Simvastatin] (top concentration 10000 nM) | 1.58 | 2.38 | 2.38 |
| C=CCN(/C=C1/C(=O)O[C@H](COC)[C@@]2(C)C1=C(O)C(=O)C1=C2[C@H](OC(C)=O)C[C@]2(C)C(=O)CC[C@@H]12)CC=C [Sonolisib] (top concentration 10000 nM) | -0.76 | -0.66 | 2.64 |
| CC(C)n1cnc2c(NCCc3ccc(O)cc3)nc(-c3csc4ccccc34)nc21 [StemRegenin_1] (top concentration 10000 nM) | -0.5 | 1.4 | 3.8 |
| CC(C)(O)CC(=O)NCCn1ccc2ncnc(Nc3ccc(Oc4cccc(C(F)(F)F)c4)c(Cl)c3)c21 [TAK-285] (top concentration 2500 nM) | 0 | 0.2 | 0 |
| Nc1nc(N)c2nc(-c3cccc(O)c3)c(-c3cccc(O)c3)nc2n1 [TG100-115] (top concentration 10000 nM) | 0.7 | 0.4 | 0.7 |
| CC/C(=C(\c1ccccc1)c1ccc(OCCN(C)C)cc1)c1ccccc1 [Tamoxifen] (top concentration 10000 nM) | -1.28 | 0.82 | 3.12 |
| COc1cc2c(N3CCN(C(=O)Nc4ccc(OC(C)C)cc4)CC3)ncnc2cc1OCCCN1CCCCC1 [Tandutinib] (top concentration 1000 nM) | 4.2 | 0 | 0 |
| Cn1nnc2c(C(N)=O)ncn2c1=O [Temozolomide] (top concentration 100000 nM) | 6.46 | 7.16 | 4.66 |
| CN1CCC(COc2cnc(-c3cccc(Cn4nc(-c5cccc(C#N)c5)ccc4=O)c3)nc2)CC1 [Tepotinib] (top concentration 1000 nM) | 0.22 | -0.08 | -0.08 |
| NC(=S)N/N=C/c1ncccc1N [Triapine] (top concentration 10000 nM) | 2.18 | 2.68 | 6.78 |
| NC(=O)c1cccc(-c2cccc(OC(=O)NC3CCCCC3)c2)c1 [URB597] (top concentration 1000 nM) | -0.46 | -0.46 | -0.46 |
| COc1cc2/c(=N/c3ccc(Br)cc3F)nc[nH]c2cc1OCC1CCN(C)CC1 [Vandetanib] (top concentration 1000 nM) | -0.12 | -0.22 | 2.68 |
| COc1cccc(-c2ccc(NC(=O)C3=C(C(=O)O)CCC3)c(F)c2)c1 [Vidofludimus] (top concentration 10000 nM) | 5.6 | 3.1 | 3.2 |
| CC[C@]12C=CCN3CC[C@@]4(c5cc([C@@]6(C(=O)OC)C[C@@H]7C[C@@H](C(C)(F)F)CN(Cc8c6[nH]c6ccccc86)C7)c(OC)cc5N(C)[C@H]4[C@@](O)(C(=O)OC)[C@@H]1OC(C)=O)[C@@H]32 [Vinflunine] (top concentration 1000 nM) | 6.28 | 3.98 | 10.3 |
